Measured values published in patent publication US20080194631A1, “Medicament For the Treatment of Central Nervous System Disorders” (priority 2004, published 2008).

Columns and labels:
alcohol withdrawal = settings: in vivo; cited from earlier work
[1] = system: stimulant effects of alcohol; settings: in vivo; cited from earlier work
[2] = system: sensitization induced by amphetamine; assay: Behavioral sensitization protocol (amphetamine), locomotor activity in open-field; assay type: in vivo, mice; settings: repeated sessions, amphetamine 2 mg/kg
Procedure: (§1) The principle of the behavioral sensitization test is based on the measurement of the locomotor activity. The latter is measured in the open-field test.
(§2) The animals used are 9-week old C57/BL6J male mice at the beginning of the experiment.
(§3) The open-fields used to measure the activity are 4 square chambers made of transparent plexiglas. Each open-field is arranged in a setting equipped with photoelectric cells which make it possible to record the movements of the animal.
Groups receive beforehand an administration of one of the products or the combination of both.
During the 1st session, the animals receive NaCl at the 1st and 2nd injection. The experiment is performed over several sessions, 2 to 10 days apart.
The experiments were performed on 5 groups of animals which received the following treatments at each session.

C57/BL6J male mice = assay: Motor and exploratory activity test in open-field (effects of the products on the locomotor activity); assay type: in vivo; settings: ifenprodil alone, doses of less than 10 mg/kg
Procedure: as §1
Motor and Exploratory Activity Test in Open-Field
as §2, §3
The products used have known psychotropic properties. […] Since the principle of the study is based on the measurement of the locomotor activity, it is preferable to have a preliminary evaluation of these effects under the experimental conditions used.
All the products are dissolved in physiological saline (0.9% NaCl) so that the volume for injection is 10 ml/kg of body weight.
IFENPRODIL was tested at the following doses: 1 mg/kg; 3 mg/kg and 10 mg/kg.
The experiments were also performed in order to evaluate the effect of the combination of the products:

[3] = in vivo; cited from earlier work
[4] = system: hyperactivity induced by MK801; assay: Model of locomotor hyperactivity induced by MK801; assay type: in vivo; settings: clozapine 1 mg/kg
Procedure: Given the pharmacological profile of the molecules chosen toward the noradrenergic and serotoninergic receptors, an antipsychotic activity was sought. The substances were tested in the model of locomotor hyperactivity induced by MK801. […] In this model and under our experimental conditions, clozapine (1 mg/kg) reduces by 56% the hyperactivity induced by MK 801.
Effect of the combination 1 mg/kg ifenprodil+1 mg/kg cyproheptadine on the locomotor activity induced by MK801 (cm covered, mean +SEM).

| Compound | effect on the physical signs induced by alcohol withdrawal (alcohol withdrawal) | effect on the expression of sensitization (alcohol) [1] | effect on the stimulant effects of alcohol [1] | effect on the development (and expression) of behavioral sensitization to amphetamine [2] | effect on locomotion (C57/BL6J male mice) | anxiolytic effects [3] | reduction of the hyperactivity induced by MK 801 [4] |
| --- | --- | --- | --- | --- | --- | --- | --- |
| CC(C(O)c1ccc(O)cc1)N1CCC(Cc2ccccc2)CC1 (stereo not shown) [Ifenprodil] | reduces | does not block | reduces | limited effects | does not have a significant effect | anxiolytic effects | – |
| CN1CCN(C2=Nc3cc(Cl)ccc3Nc3ccccc32)CC1 [clozapine] | – | – | – | – | – | – | 56% |
